In patent publication US20250163104A1, “MACROCYCLIC IMMUNOMODULATORS” (priority 2021, published 2025):
Where a SMILES comes first, the peptide text is derived from it. Bridges are numbered along the chain shown (N, C = ends). [ ]: non-standard residue; d: D form. The star is where a group is joined. ξ: configuration not given here. Phe(4-COOH) = N[C@@H](Cc1ccc(C(=O)O)cc1)C(=O)O; Asp(3,3-Me2) = CC(C)(C(=O)O)[C@H](N)C(=O)O; Bip = N[C@@H](Cc1ccc(-c2ccccc2)cc1)C(=O)O; Phe(3-OMe) = COc1cccc(C[C@H](N)C(=O)O)c1; Ala(2-furyl) = N[C@@H](Cc1ccco1)C(=O)O; Phe(3-Me) = Cc1cccc(C[C@H](N)C(=O)O)c1; Val(3-OH) = CC(C)(O)[C@H](N)C(=O)O; ξW = NC(Cc1c[nH]c2ccccc12)C(=O)O; 3Pal = N[C@@H](Cc1cccnc1)C(=O)O; 4Pal = N[C@@H](Cc1ccncc1)C(=O)O; 2Thi = N[C@@H](Cc1cccs1)C(=O)O; Cha = N[C@@H](CC1CCCCC1)C(=O)O; Cit = NC(=O)NCCC[C@H](N)C(=O)O; Ile(3ξ) = CCC(C)[C@H](N)C(=O)O; dCha = N[C@H](CC1CCCCC1)C(=O)O; Thr(3ξ) = CC(O)[C@H](N)C(=O)O; Carboxymethyl = O=C(O)C*; Orn = NCCC[C@H](N)C(=O)O; Dab = NCC[C@H](N)C(=O)O; Dap = NC[C@H](N)C(=O)O

Target: T1, human PD-1 / PD-L1-Ig binding on Jurkat cell line over-expressing human PD-1 (Jurkat-PD-1) (Homo sapiens, UniProt Q15116)
T1 construct: expressed in transfected cells; host or cells: Jurkat
T1 sequence (Q15116 25-288): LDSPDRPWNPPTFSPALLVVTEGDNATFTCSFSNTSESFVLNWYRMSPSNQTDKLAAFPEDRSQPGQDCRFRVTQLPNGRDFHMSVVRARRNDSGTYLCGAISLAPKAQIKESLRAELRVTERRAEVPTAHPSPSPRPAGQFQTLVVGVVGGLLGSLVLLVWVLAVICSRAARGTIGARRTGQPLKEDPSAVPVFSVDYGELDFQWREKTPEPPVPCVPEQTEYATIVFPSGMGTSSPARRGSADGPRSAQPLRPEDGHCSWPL
Assay: Jurkat-PD-1 Cell Binding High-Content Screening Assay (CBA)
Assay type: cell-based
Conditions: Jurkat HPD1_PDL1 IC50, Jurkat-PD-1 cells, PE-labeled PD-L1-Ig 20 nM final
Method in brief: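 PE-PD-L1-Ig 20 nM final; cells in DMEM/10% FCS; cpd pre-incubation 2 h, 37° C; ligand 1 h; PFA fix + Hoechst 33342; high-content imaging read-out.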

SMILES | IC50 [nM]
CC(C)C[C@@H]1NC(=O)[C@H](Cc2c[nH]c3ccccc23)NC(=O)[C@H](CC(=O)O)NC(=O)[C@H](Cc2ccc(OCC(=O)O)cc2)NC(=O)[C@H](CN)NC(=O)CSC[C@@H](C(=O)NCC(N)=O)NC(=O)[C@H](CO)NC(=O)[C@H](C(C)C)NC(=O)[C@H](CC(C)C)NC(=O)[C@H](CC(N)=O)NC(=O)[C@@H](CC(C)C)NC(=O)[C@H](CN)NC(=O)[C@H](C(C)C)NC(=O)[C@H](Cc2ccc(-c3ccccc3)cc2)NC1=O [Compound 1276] ({CH2CO}-[Dap]Y(Carboxymethyl)DWL[Bip]V[Dap][dL]NLVSCG-NH2; thioether N-14) | 8.1

Same assay, conditions: Jurkat-PD-1 cells, PE-labeled PD-L1-Ig 20 nM final; read-out: Jurkat HPD1_PDL1 IC50

SMILES | IC50 [nM]
CC(C)C[C@H]1NC(=O)[C@H](CCCN)NC(=O)[C@H](CCC(=O)O)NC(=O)[C@H](Cc2ccc(-c3ccccc3)cc2)NC(=O)[C@H](C(C)C)NC(=O)[C@H](Cc2c[nH]c3ccccc23)NC(=O)[C@H](CC(=O)O)NC(=O)[C@H](Cc2ccc(-c3cccc(C(=O)O)c3)cc2)NC(=O)[C@H](Cc2ccc(OCC(=O)O)cc2)NC(=O)CSC[C@@H](C(=O)N[C@@H](C)C(N)=O)NC(=O)[C@H]([C@@H](C)O)NC(=O)[C@H](C(C)C)NC(=O)[C@H](CC2CCCCC2)NC(=O)[C@H](CCN)NC1=O [Compound 2163] | 17.6
CC(C)C[C@@H]1NC(=O)C(Cc2c[nH]c3ccccc23)NC(=O)[C@H](CC(=O)O)NC(=O)[C@H](Cc2ccc(O)cc2)NC(=O)[C@H](Cc2ccccc2)NC(=O)CSC[C@@H](C(=O)N[C@@H](C)C(N)=O)NC(=O)[C@H](CO)NC(=O)[C@H](C(C)C)NC(=O)[C@H](CC(C)C)NC(=O)[C@H](CC(N)=O)NC(=O)[C@@H](CC(C)C)NC(=O)[C@H](CN)NC(=O)[C@H](CCCNC(N)=O)NC(=O)[C@H](Cc2ccc(-c3ccccc3)cc2)NC1=O (stereo partly drawn) [Compound 1217] ({CH2CO}-FYD[ξW]L[Bip][Cit][Dap][dL]NLVSCA-NH2; thioether N-14) | 25.4
CC(C)C[C@@H]1NC(=O)[C@H](Cc2c[nH]c3ccccc23)NC(=O)[C@H](CC(=O)O)NC(=O)[C@H](Cc2ccc(O)cc2)NC(=O)[C@H](Cc2ccccc2)NC(=O)CSC[C@@H](C(=O)NCC(N)=O)NC(=O)[C@H](CO)NC(=O)[C@H](C(C)C)NC(=O)[C@H](CC(C)C)NC(=O)[C@H](CCN)NC(=O)[C@@H](C)NC(=O)[C@H](CN)NC(=O)[C@H](C(C)C)NC(=O)[C@H](Cc2ccc(-c3ccccc3)cc2)NC1=O [Compound 1098] ({CH2CO}-FYDWL[Bip]V[Dap][dA][Dab]LVSCG-NH2; thioether N-14) | 115
Cc1cccc(C[C@@H]2NC(=O)[C@H](CC(=O)O)NC(=O)[C@H](Cc3ccc(C(=O)O)cc3)NC(=O)[C@H](Cc3ccncc3)NC(=O)CSC[C@@H](C(=O)N[C@@H](CCN)C(N)=O)NC(=O)[C@H](CO)NC(=O)[C@H](C(C)(C)O)NC(=O)[C@H](CC3CCCCC3)NC(=O)[C@H](CCN)NC(=O)[C@@H](CC(C)C)NC(=O)[C@H](CCCN)NC(=O)[C@H](Cc3ccc(C(=O)O)cc3)NC(=O)[C@H](Cc3ccc(-c4ccccc4)cc3)NC(=O)[C@H](Cc3ccc(OCC(=O)O)cc3)NC2=O)c1 [Compound 2661] ({CH2CO}-[4Pal][Phe(4-COOH)]D[Phe(3-Me)]Y(Carboxymethyl)[Bip][Phe(4-COOH)][Orn][dL][Dab][Cha][Val(3-OH)]SC[Dab]-NH2; thioether N-14) | 201
CC(C)[C@@H]1NC(=O)[C@H](Cc2c[nH]c3ccccc23)NC(=O)[C@H](CC(=O)O)NC(=O)[C@H](Cc2ccc(O)cc2)NC(=O)[C@H](CC(N)=O)NC(=O)CSC[C@@H](C(=O)N[C@@H](C)C(N)=O)NC(=O)[C@H]([C@@H](C)O)NC(=O)[C@H](C(C)C)NC(=O)[C@H](CC2CCCCC2)NC(=O)[C@H](CCN)NC(=O)[C@@H](CC2CCCCC2)NC(=O)[C@H](CCCN)NC(=O)[C@H](CCCNC(N)=O)NC(=O)[C@H](Cc2ccc(-c3ccccc3)cc2)NC1=O [Compound 1647] ({CH2CO}-NYDWV[Bip][Cit][Orn][dCha][Dab][Cha]VTCA-NH2; thioether N-14) | 50.9
Cc1cccc(C[C@@H]2NC(=O)[C@H](CC(=O)O)NC(=O)[C@H](Cc3ccc(C(=O)O)cc3)NC(=O)[C@H](Cc3ccncc3)NC(=O)CSC[C@@H](C(=O)N[C@@H](CCN)C(N)=O)NC(=O)[C@H](CO)NC(=O)[C@H](C(C)(C)O)NC(=O)[C@H](CC3CCCCC3)NC(=O)[C@H](CCN)NC(=O)[C@@H](CC(C)C)NC(=O)[C@H](C(C)(C)C(=O)O)NC(=O)[C@H](Cc3ccc(OCC(=O)O)cc3)NC(=O)[C@H](Cc3ccc(-c4ccccc4)cc3)NC(=O)[C@H](Cc3ccc(OCC(=O)O)cc3)NC2=O)c1 [Compound 2072] ({CH2CO}-[4Pal][Phe(4-COOH)]D[Phe(3-Me)]Y(Carboxymethyl)[Bip]Y(Carboxymethyl)[Asp(3,3-Me2)][dL][Dab][Cha][Val(3-OH)]SC[Dab]-NH2; thioether N-14) | 19.5
CCC(C)[C@@H]1NC(=O)[C@H](Cc2ccc(-c3ccccc3)cc2)NC(=O)[C@H](CC2CCCCC2)NC(=O)[C@H](Cc2c[nH]c3ccccc23)NC(=O)[C@H](CC(=O)O)NC(=O)[C@H](Cc2ccc(OCC(=O)O)cc2)NC(=O)[C@H](C(C)O)NC(=O)CSC[C@@H](C(=O)N[C@@H](CC(N)=O)C(=O)O)NC(=O)[C@H](CO)NC(=O)[C@H](C(C)C)NC(=O)[C@H](CC(C)C)NC(=O)[C@H](CCN)NC(=O)[C@@H](CC(C)C)NC(=O)[C@H](CCCN)NC1=O (stereo partly drawn) [Compound 2575] ({CH2CO}-[Thr(3ξ)]Y(Carboxymethyl)DW[Cha][Bip][Ile(3ξ)][Orn][dL][Dab]LVSCN-OH; thioether N-14) | 60.1
Cc1cccc(C[C@@H]2NC(=O)[C@H](CC(=O)O)NC(=O)[C@H](Cc3ccc(OCC(=O)O)cc3)NC(=O)[C@H](Cc3cccnc3)NC(=O)CSC[C@@H](C(=O)NCC(N)=O)NC(=O)[C@H](CO)NC(=O)[C@H](C(C)C)NC(=O)[C@H](CC3CCCCC3)NC(=O)[C@H](Cc3cnc[nH]3)NC(=O)[C@@H](CC(C)C)NC(=O)[C@H](CCCN)NC(=O)[C@H](C(C)C)NC(=O)[C@H](Cc3ccc(-c4ccccc4)cc3)NC(=O)[C@H](CC(C)C)NC2=O)c1 [Compound 1582] ({CH2CO}-[3Pal]Y(Carboxymethyl)D[Phe(3-Me)]L[Bip]V[Orn][dL]H[Cha]VSCG-NH2; thioether N-14) | 36.2

Results, then the compound that gave them:

IC50 [nM] | SMILES
10.1 | CC(C)C[C@H]1NC(=O)[C@H](CCCN)NC(=O)[C@H](CCC(=O)O)NC(=O)[C@H](Cc2ccc(-c3ccccc3)cc2)NC(=O)[C@H](C(C)C)NC(=O)[C@H](Cc2cccs2)NC(=O)[C@H](CC(=O)O)NC(=O)[C@H](Cc2ccc(OCC(=O)O)cc2)NC(=O)[C@H](CN)NC(=O)CSC[C@@H](C(=O)N[C@@H](C)C(N)=O)NC(=O)[C@H]([C@@H](C)O)NC(=O)[C@H](C(C)C)NC(=O)[C@H](CC2CCCCC2)NC(=O)[C@H](CCN)NC1=O [Compound 2153] ({CH2CO}-[Dap]Y(Carboxymethyl)D[2Thi]V[Bip]E[Orn][dL][Dab][Cha]VTCA-NH2; thioether N-14)
6.9 | CC(C)C[C@H]1NC(=O)[C@H](CCCN)NC(=O)[C@H](C(C)C)NC(=O)[C@H](Cc2ccc(-c3ccccc3)cc2)NC(=O)[C@H](C(C)C)NC(=O)[C@H](Cc2c[nH]c3ccccc23)NC(=O)[C@H](CC(=O)O)NC(=O)[C@H](Cc2ccc(OCC(=O)O)cc2)NC(=O)[C@H](Cc2ccncc2)NC(=O)CSC[C@@H](C(=O)N[C@@H](C)C(N)=O)NC(=O)[C@H](C(C)O)NC(=O)[C@H](C(C)C)NC(=O)[C@H](CC2CCCCC2)NC(=O)[C@H](CCN)NC1=O (stereo partly drawn) [Compound 2522]
5.6 | Cc1cccc(C[C@@H]2NC(=O)[C@H](CC(=O)O)NC(=O)[C@H](Cc3ccc(OCC(=O)O)cc3)NC(=O)[C@H](Cc3cccnc3)NC(=O)CSC[C@@H](C(=O)N[C@@H](C)C(N)=O)NC(=O)[C@H]([C@@H](C)O)NC(=O)[C@H](C(C)C)NC(=O)[C@H](CC(C)C)NC(=O)[C@H](CCN)NC(=O)[C@@H](CC(C)C)NC(=O)[C@H](CCCN)NC(=O)[C@H](C(C)C)NC(=O)[C@H](Cc3ccc(-c4ccccc4)cc3)NC(=O)[C@H](C(C)C)NC2=O)c1 [Compound 1218] ({CH2CO}-[3Pal]Y(Carboxymethyl)D[Phe(3-Me)]V[Bip]V[Orn][dL][Dab]LVTCA-NH2; thioether N-14)
12.6 | CC(C)C[C@H]1NC(=O)[C@H](CCCN)NC(=O)[C@H](CCCNC(N)=O)NC(=O)[C@H](Cc2ccc(-c3ccccc3)cc2)NC(=O)[C@H](C(C)C)NC(=O)[C@H](Cc2c[nH]c3ccccc23)NC(=O)[C@H](CC(=O)O)NC(=O)[C@H](Cc2ccco2)NC(=O)[C@H](CN)NC(=O)CSC[C@@H](C(=O)N[C@@H](C)C(N)=O)NC(=O)[C@H]([C@@H](C)O)NC(=O)[C@H](C(C)C)NC(=O)[C@H](CC2CCCCC2)NC(=O)[C@H](CCN)NC1=O [Compound 2099] ({CH2CO}-[Dap][Ala(2-furyl)]DWV[Bip][Cit][Orn][dL][Dab][Cha]VTCA-NH2; thioether N-14)
7.4 | COc1cccc(C[C@@H]2NC(=O)[C@H](CC(=O)O)NC(=O)[C@H](Cc3ccc(OCC(=O)O)cc3)NC(=O)[C@H](Cc3ccncc3)NC(=O)CSC[C@@H](C(=O)N[C@@H](C)C(N)=O)NC(=O)[C@H]([C@@H](C)O)NC(=O)[C@H](C(C)C)NC(=O)[C@H](CC(C)C)NC(=O)[C@H](CCN)NC(=O)[C@@H](CC(C)C)NC(=O)[C@H](CCCN)NC(=O)[C@H](CCCNC(N)=O)NC(=O)[C@H](Cc3ccc(-c4ccccc4)cc3)NC(=O)[C@H](C(C)C)NC2=O)c1 [Compound 1185] ({CH2CO}-[4Pal]Y(Carboxymethyl)D[Phe(3-OMe)]V[Bip][Cit][Orn][dL][Dab]LVTCA-NH2; thioether N-14)
17.5 | CC(C)C[C@H]1NC(=O)[C@H](CCCN)NC(=O)[C@H](CCC(=O)O)NC(=O)[C@H](Cc2ccc(-c3ccccc3)cc2)NC(=O)[C@H](C(C)C)NC(=O)[C@H](Cc2ccc(F)c(F)c2)NC(=O)[C@H](CC(=O)O)NC(=O)[C@H](Cc2ccc(OCC(=O)O)cc2)NC(=O)[C@H](CN)NC(=O)CSC[C@@H](C(=O)N[C@@H](C)C(N)=O)NC(=O)[C@H]([C@@H](C)O)NC(=O)[C@H](C(C)C)NC(=O)[C@H](CC2CCCCC2)NC(=O)[C@H](CCN)NC1=O [Compound 2148]
